Patent US20140294956A1, “GASTRIC RETENTIVE EXTENDED RELEASE PHARMACEUTICAL COMPOSITIONS” (MALLINCKRODT LLC, priority 2011, published 2014)

Experiment: Ethanol release testing at 100 rpm paddle speed (Example 32)
Type: physicochemical

For `CC(=O)Nc1ccc(O)cc1` [APAP], the “Percent Release, Mean” value (0% Ethanol, 15 min) was 52.2%, the “Percent Release, Mean” value (0% Ethanol, 30 min) was 54.6% and the “Percent Release, Mean” value (0% Ethanol, 45 min) was 56.8%. The “Percent Release, Mean” value (0% Ethanol, 60 min) was 58.8%, the “Percent Release, Mean” value (0% Ethanol, 75 min) was 60.8% and the “Percent Release, Mean” value (0% Ethanol, 90 min) was 62.6%. The “Percent Release, Mean” value (0% Ethanol, 120 min) was 66.0%, the “Percent Release, Mean” value (0% Ethanol, 240 min) was 78.6% and the “Percent Release, Mean” value (0% Ethanol, 480 min) was 95.5%. For the same compound, the “Percent Release, Mean” value (5% Ethanol, 15 min) was 52.6%, the “Percent Release, Mean” value (5% Ethanol, 30 min) was 55.1% and the “Percent Release, Mean” value (5% Ethanol, 45 min) was 57.1%. For the same compound, the “Percent Release, Mean” value (5% Ethanol, 60 min) was 58.9%, the “Percent Release, Mean” value (5% Ethanol, 75 min) was 60.7% and the “Percent Release, Mean” value (5% Ethanol, 90 min) was 62.3%. For the same compound, the “Percent Release, Mean” value (5% Ethanol, 120 min) was 65.5%, the “Percent Release, Mean” value (5% Ethanol, 240 min) was 77.2% and the “Percent Release, Mean” value (5% Ethanol, 480 min) was 94.4%. The “Percent Release, Mean” value (10% Ethanol, 15 min) was 51.7%, the “Percent Release, Mean” value (10% Ethanol, 30 min) was 54.1% and the “Percent Release, Mean” value (10% Ethanol, 45 min) was 56.0%. The “Percent Release, Mean” value (10% Ethanol, 60 min) was 57.8%, the “Percent Release, Mean” value (10% Ethanol, 75 min) was 59.5% and the “Percent Release, Mean” value (10% Ethanol, 90 min) was 61.1%. For the same compound, the “Percent Release, Mean” value (10% Ethanol, 120 min) was 64.1%, the “Percent Release, Mean” value (10% Ethanol, 240 min) was 75.5% and the “Percent Release, Mean” value (10% Ethanol, 480 min) was 93.5%. For the same compound, the “Percent Release, Mean” value (20% Ethanol, 15 min) was 50.2%, the “Percent Release, Mean” value (20% Ethanol, 30 min) was 53.4% and the “Percent Release, Mean” value (20% Ethanol, 45 min) was 55.5%. For the same compound, the “Percent Release, Mean” value (20% Ethanol, 60 min) was 57.3%, the “Percent Release, Mean” value (20% Ethanol, 75 min) was 59.0% and the “Percent Release, Mean” value (20% Ethanol, 90 min) was 60.5%. For the same compound, the “Percent Release, Mean” value (20% Ethanol, 120 min) was 63.3%, the “Percent Release, Mean” value (20% Ethanol, 240 min) was 76.0% and the “Percent Release, Mean” value (20% Ethanol, 480 min) was 91.9%. For the same compound, the “Percent Release, Mean” value (40% Ethanol, 15 min) was 16.7%, the “Percent Release, Mean” value (40% Ethanol, 30 min) was 30.4% and the “Percent Release, Mean” value (40% Ethanol, 45 min) was 38.5%. The “Percent Release, Mean” value (40% Ethanol, 60 min) was 43.1%, the “Percent Release, Mean” value (40% Ethanol, 75 min) was 46.1% and the “Percent Release, Mean” value (40% Ethanol, 90 min) was 48.3%. The “Percent Release, Mean” value (40% Ethanol, 120 min) was 51.1%, the “Percent Release, Mean” value (40% Ethanol, 240 min) was 60.8% and the “Percent Release, Mean” value (40% Ethanol, 480 min) was 77.2%.
